Measured values: paper PMC11009648, “Development of an orally bioavailable mSWI/SNF ATPase degrader and acquired mechanisms of resistance in prostate cancer” (Proceedings of the National Academy of Sciences of the …, 2024)

What was measured:
22Rv1 AUR-2 cells = assay: CellTiter-Glo cell viability assay in AU-15330-resistant 22Rv1 AUR-2 cells (SMARCA4 mutation); format: cell-based, human; details: dose-response (Fig. S4C)
Source text: The rising importance of the mSWI/SNF complex as a therapeutic target and the success ([32], [33]) of developing next-generation PROTAC degraders targeting the mSWI/SNF complex prompted us to proactively study potential resistance mechanisms that cancer cells may develop in response to this class of compounds. To achieve this, we cultured 22Rv1 cells in either DMSO or a lethal dose of AU-15330 for 1 mo, refreshing the drug twice a week, until resistant cells emerged. Upon obtaining a population of resistant cells, we unbiasedly characterized the genomic and transcriptomic alterations using whole-exome sequencing and bulk RNA sequencing (RNA-seq), respectively (Fig. 3A).
Cells were seeded onto 96-well plates in appropriate culture media and allowed to adhere overnight prior to treatment. The next day, a nine-point serial dilution of the compounds was prepared and added to the plates. After treatment, the cells were then incubated for an additional 5 d. […] The signal (luminescence) from each well was determined using an Infinite M1000 Pro plate reader (Tecan). Relative viability was determined by dividing the signal from each well by the average of the control condition in each experiment. Finally, the data were analyzed and plotted using GraphPad Prism.

[1] = system: panel of human cancer or normal cell lines; assay: Cell-TiterGlo viability assays in a panel of cell lines; format: cell-based; details: 5 d of treatment; sensitive: IC50 < 100 nM, resistant: IC50 > 100 nM
Experimental: Cells were seeded onto 96-well plates in appropriate culture media and allowed to adhere overnight prior to treatment. The next day, a nine-point serial dilution of the compounds was prepared and added to the plates. After treatment, the cells were then incubated for an additional 5 d. On the last day of treatment, the CellTiter-Glo cell viability assay (Promega) was then executed in accordance with the manufacturer’s guidelines. The signal (luminescence) from each well was determined using an Infinite M1000 Pro plate reader (Tecan). Relative viability was determined by dividing the signal from each well by the average of the control condition in each experiment. Finally, the data were analyzed and plotted using GraphPad Prism.

[2] = system: SMARCA4 (BRG1) and PBRM1 in VCaP cells; assay: Immunoblot of target degradation in VCaP cells; format: cell-based, human; details: 4 h, identical treatment conditions
Experimental: Lysates were prepared using radioimmunoprecipitation assay buffer (Thermo Fisher) with cOmpleteTM protease inhibitor cocktail tablets (Sigma-Aldrich) added. Total protein for each sample was determined using the DC Protein Assay (Bio-Rad) according to the manufacturer’s instructions. A standardized quantity of protein was resolved using NuPAGE Tris-Acetate Protein Gel (3 to 8%) (Thermo Fisher) or NuPAGE Bis-Tris Protein Gel (4 to 12%) (Thermo Fisher) and probed with primary antibodies as indicated. Following incubation with secondary antibodies conjugated with horseradish peroxidase, membranes were imaged on an Odyssey Fc Imager (LiCOR Biosciences).

Nc1nnc(-c2ccccc2O)cc1-c1ccc(N2CCC(N3CCC(c4ccc(OC5CCC(=O)NC5=O)cc4)CC3)CC2)cc1 (stereo not drawn) [AU-24118]
ability to cause a decrease in cell viability (22Rv1 AUR-2 cells): unable
cell viability preference across diverse cell lines [1]: notable preference for inhibiting transcription factor–addicted cancer cells
degradation of SMARCA4 and PBRM1, immunoblot [2]: comparable degradation efficacy of SMARCA4 and PBRM1 to AU-15330
